Test results taken from PubChem BioAssay AID248 (DTP/NCI, 2004).
Where “and” joins values, the source holds several entries; their conditions need not be identical. Equal entries are not always repeated. Toxic doses and inconclusive results are not listed. Rule as the data show it: active = T/C of 150% or more; inactive = T/C below 125%.

System: L1210 leukemia ip in BDF1 mice, survival T/C
Assay: NCI In Vivo Anticancer Drug Screen. Data for tumor model L1210 Leukemia (intraperitoneal) in B6D2F1 (BDF1) mice
Conditions: higher = longer survival
Method in brief: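 Tumor cells were implanted, animals were treated, and survival was followed. The result divides the treated measurement by the vehicle-control measurement.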

Measured: T/C

CCOC(=O)C(C)(C(=O)OCC)c1cccc2ccccc12
inactive: endpoint: mean survival time, dose: 100.0 mg/kg/injection, schedule: Q01DX001 (ip), vehicle: other 98 % of control | endpoint: mean survival time, dose: 100.0 mg/kg/injection, schedule: Q04DX003 (ip), vehicle: other 93 % of control | endpoint: mean survival time, dose: 200.0 mg/kg/injection, schedule: Q01DX001 (ip), vehicle: other 102 % of control | endpoint: mean survival time, dose: 200.0 mg/kg/injection, schedule: Q04DX003 (ip), vehicle: other 100 % of control | endpoint: mean survival time, dose: 400.0 mg/kg/injection, schedule: Q01DX001 (ip), vehicle: other 96 % of control | endpoint: mean survival time, dose: 400.0 mg/kg/injection, schedule: Q04DX003 (ip), vehicle: other 94 % of control

CC[C@H]1CN2CCc3cc(OC)c(OC)cc3[C@@H]2C[C@@H]1C[C@H]1NCCc2cc(OC)c(OC)cc21
active: endpoint: mean survival time, dose: 8.0 mg/kg/injection, schedule: Q01DX006 (ip), vehicle: saline 156 % of control | endpoint: mean survival time, dose: 15.0 mg/kg/injection, schedule: Q04DX003 (ip), vehicle: Klucel (hydroxypropylcellulose) (HPC) 152 % of control | endpoint: mean survival time, dose: 15.0 mg/kg/injection, schedule: Q04DX009 (ip), vehicle: water 160 % of control | endpoint: mean survival time, dose: 16.0 mg/kg/injection, schedule: Q04DX003 (ip), vehicle: water 161 % of control | endpoint: mean survival time, dose: 16.0 mg/kg/injection, schedule: Q## X003 (ip), vehicle: saline 171 % of control | endpoint: mean survival time, dose: 20.0 mg/kg/injection, schedule: Q04DX003 (ip), vehicle: Klucel (hydroxypropylcellulose) (HPC) 162 % of control and 164 % of control | endpoint: mean survival time, dose: 20.0 mg/kg/injection, schedule: Q04DX009 (ip), vehicle: water 168 % of control | endpoint: mean survival time, dose: 25.0 mg/kg/injection, schedule: Q04DX003 (ip), vehicle: saline with Tween-80 164 % of control | endpoint: mean survival time, dose: 32.0 mg/kg/injection, schedule: Q04DX003 (ip), vehicle: water 154 % of control | endpoint: mean survival time, dose: 32.0 mg/kg/injection, schedule: Q08DX002 (ip), vehicle: saline 152 % of control | endpoint: median survival time, dose: 15.0 mg/kg/injection, schedule: Q04DX003 (ip), vehicle: saline 161 % of control and 168 % of control | endpoint: median survival time, dose: 16.0 mg/kg/injection, schedule: Q04DX003 (ip), vehicle: saline 166 % of control | endpoint: median survival time, dose: 20.0 mg/kg/injection, schedule: Q04DX003 (ip), vehicle: saline 177 % of control and 179 % of control
inactive: endpoint: mean survival time, dose: 0.93 mg/kg/injection, schedule: Q04DX003 (ip), vehicle: water 108 % of control | endpoint: mean survival time, dose: 1.0 mg/kg/injection, schedule: Q01DX009 (ip), vehicle: saline 109 % of control | endpoint: mean survival time, dose: 1.75 mg/kg/injection, schedule: Q01DX009 (ip), vehicle: saline 115 % of control and 121 % of control | endpoint: mean survival time, dose: 1.8 mg/kg/injection, schedule: Q01DX009 (ip), vehicle: saline 104 % of control and 120 % of control | endpoint: mean survival time, dose: 1.86 mg/kg/injection, schedule: Q04DX003 (ip), vehicle: water 105 % of control | endpoint: mean survival time, dose: 1.88 mg/kg/injection, schedule: Q01DX001 (ip), vehicle: water 102 % of control | endpoint: mean survival time, dose: 2.0 mg/kg/injection, schedule: Q01DX005 (iv), vehicle: saline 108 % of control | endpoint: mean survival time, dose: 2.0 mg/kg/injection, schedule: Q01DX005 (oral), vehicle: saline 103 % of control | endpoint: mean survival time, dose: 2.0 mg/kg/injection, schedule: Q01DX005 (sc), vehicle: saline 105 % of control | endpoint: mean survival time, dose: 2.0 mg/kg/injection, schedule: Q01DX006 (ip), vehicle: saline 112 % of control | endpoint: mean survival time, dose: 2.0 mg/kg/injection, schedule: Q01DX009 (ip), vehicle: saline 108 % of control | endpoint: mean survival time, dose: 2.0 mg/kg/injection, schedule: Q04DX003 (ip), vehicle: saline 100 % of control | endpoint: mean survival time, dose: 2.0 mg/kg/injection, schedule: Q04DX003 (iv), vehicle: saline 110 % of control | endpoint: mean survival time, dose: 2.0 mg/kg/injection, schedule: Q04DX003 (oral), vehicle: saline 110 % of control | endpoint: mean survival time, dose: 2.0 mg/kg/injection, schedule: Q04DX003 (sc), vehicle: saline 106 % of control | endpoint: mean survival time, dose: 2.0 mg/kg/injection, schedule: Q08DX002 (iv), vehicle: saline 106 % of control | endpoint: mean survival time, dose: 2.0 mg/kg/injection, schedule: Q08DX002 (oral), vehicle: saline 103 % of control | endpoint: mean survival time, dose: 2.5 mg/kg/injection, schedule: Q04DX003 (ip), vehicle: water 104 % of control | endpoint: mean survival time, dose: 3.0 mg/kg/injection, schedule: Q01DX009 (oral), vehicle: saline 112 % of control | endpoint: mean survival time, dose: 3.75 mg/kg/injection, schedule: Q01DX001 (ip), vehicle: water 103 % of control | endpoint: mean survival time, dose: 3.75 mg/kg/injection, schedule: Q04DX003 (ip), vehicle: water 104 % of control | endpoint: mean survival time, dose: 4.0 mg/kg/injection, schedule: Q01DX009 (ip), vehicle: saline 97 % of control | endpoint: mean survival time, dose: 4.0 mg/kg/injection, schedule: Q04DX003 (ip), vehicle: water 113 % of control and 116 % of control and 117 % of control | endpoint: mean survival time, dose: 4.0 mg/kg/injection, schedule: Q04DX003 (iv), vehicle: saline 108 % of control | endpoint: mean survival time, dose: 4.0 mg/kg/injection, schedule: Q04DX003 (oral), vehicle: saline 108 % of control | endpoint: mean survival time, dose: 4.0 mg/kg/injection, schedule: Q04DX003 (sc), vehicle: saline 110 % of control | endpoint: mean survival time, dose: 4.0 mg/kg/injection, schedule: Q08DX002 (ip), vehicle: saline 112 % of control | endpoint: mean survival time, dose: 4.0 mg/kg/injection, schedule: Q08DX002 (oral), vehicle: saline 110 % of control | endpoint: mean survival time, dose: 4.0 mg/kg/injection, schedule: Q08DX002 (sc), vehicle: saline 108 % of control | endpoint: mean survival time, dose: 4.0 mg/kg/injection, schedule: Q## X003 (ip), vehicle: saline 115 % of control | endpoint: mean survival time, dose: 5.0 mg/kg/injection, schedule: Q04DX003 (ip), vehicle: water 109 % of control | endpoint: mean survival time, dose: 6.0 mg/kg/injection, schedule: Q01DX009 (oral), vehicle: saline 108 % of control | endpoint: mean survival time, dose: 6.0 mg/kg/injection, schedule: Q01DX015 (ip), vehicle: saline 102 % of control | endpoint: mean survival time, dose: 7.5 mg/kg/injection, schedule: Q01DX001 (ip), vehicle: water 106 % of control | endpoint: mean survival time, dose: 8.0 mg/kg/injection, schedule: Q04DX003 (ip), vehicle: water 109 % of control and 124 % of control | endpoint: mean survival time, dose: 8.0 mg/kg/injection, schedule: Q04DX003 (iv), vehicle: saline 122 % of control | endpoint: mean survival time, dose: 8.0 mg/kg/injection, schedule: Q04DX003 (oral), vehicle: saline 116 % of control | endpoint: mean survival time, dose: 8.0 mg/kg/injection, schedule: Q04DX003 (sc), vehicle: saline 113 % of control | endpoint: mean survival time, dose: 8.0 mg/kg/injection, schedule: Q08DX002 (ip), vehicle: saline 120 % of control | endpoint: mean survival time, dose: 8.0 mg/kg/injection, schedule: Q08DX002 (oral), vehicle: saline 110 % of control | endpoint: mean survival time, dose: 8.0 mg/kg/injection, schedule: Q08DX002 (sc), vehicle: saline 111 % of control | endpoint: mean survival time, dose: 8.0 mg/kg/injection, schedule: Q## X002 (ip), vehicle: saline 118 % of control | endpoint: mean survival time, dose: 8.0 mg/kg/injection, schedule: Q## X003 (ip), vehicle: saline 123 % of control | endpoint: mean survival time, dose: 8.0 mg/kg/injection, schedule: Q## X008 (ip), vehicle: saline 110 % of control | endpoint: mean survival time, dose: 8.0 mg/kg/injection, schedule: Q## X024 (ip), vehicle: saline 117 % of control | endpoint: mean survival time, dose: 9.0 mg/kg/injection, schedule: Q01DX Z (ip), vehicle: methylcellulose (MC) 92 % of control | endpoint: mean survival time, dose: 10.0 mg/kg/injection, schedule: Q04DX009 (ip), vehicle: water 121 % of control | endpoint: mean survival time, dose: 15.0 mg/kg/injection, schedule: Q01DX001 (ip), vehicle: water 117 % of control | endpoint: mean survival time, dose: 16.0 mg/kg/injection, schedule: Q01DX001 (ip), vehicle: saline 121 % of control | endpoint: mean survival time, dose: 22.2 mg/kg/injection, schedule: Q01DX001 (ip), vehicle: carboxymethylcellulose (CMC) 102 % of control | endpoint: mean survival time, dose: 25.0 mg/kg/injection, schedule: Q04DX009 (ip), vehicle: water 118 % of control | endpoint: mean survival time, dose: 30.0 mg/kg/injection, schedule: Q04DX003 (ip), vehicle: Klucel (hydroxypropylcellulose) (HPC) 95 % of control and 107 % of control | endpoint: mean survival time, dose: 30.0 mg/kg/injection, schedule: Q04DX003 (ip), vehicle: saline with Tween-80 115 % of control | endpoint: mean survival time, dose: 33.35 mg/kg/injection, schedule: Q01DX001 (ip), vehicle: carboxymethylcellulose (CMC) 107 % of control | endpoint: median survival time, dose: 3.75 mg/kg/injection, schedule: Q04DX003 (ip), vehicle: saline 116 % of control | endpoint: median survival time, dose: 4.0 mg/kg/injection, schedule: Q04DX003 (ip), vehicle: saline 103 % of control | endpoint: median survival time, dose: 7.5 mg/kg/injection, schedule: Q04DX003 (ip), vehicle: saline 122 % of control | endpoint: median survival time, dose: 8.0 mg/kg/injection, schedule: Q01DX001 (ip), vehicle: saline 112 % of control | endpoint: median survival time, dose: 30.0 mg/kg/injection, schedule: Q04DX003 (ip), vehicle: saline 101 % of control | endpoint: median survival time, dose: 32.0 mg/kg/injection, schedule: Q04DX003 (ip), vehicle: saline 110 % of control | endpoint: median survival time, dose: 40.0 mg/kg/injection, schedule: Q04DX003 (ip), vehicle: saline 69 % of control

CC1=CC=C(C(=O)O)C1
inactive: endpoint: mean survival time, dose: 100.0 mg/kg/injection, schedule: Q01DX009 (ip), vehicle: Klucel (hydroxypropylcellulose) (HPC) 90 % of control | endpoint: mean survival time, dose: 200.0 mg/kg/injection, schedule: Q01DX009 (ip), vehicle: Klucel (hydroxypropylcellulose) (HPC) 100 % of control | endpoint: mean survival time, dose: 400.0 mg/kg/injection, schedule: Q01DX009 (ip), vehicle: Klucel (hydroxypropylcellulose) (HPC) 92 % of control
